{
  "source": "paper PMC11061149",
  "about": "“Protein mimetic 2D FAST rescues alpha synuclein aggregation mediated early and post disease Parkinson’s phenotypes” (Nature Communications, 2024)",
  "key": {"UA196 worms": {"test_system": "UA196 worms", "experiment": "Confocal counting of healthy DA neurons, post-disease onset PD model of UA196 worms (treatment on day five)", "assay_type": "in vivo, C. elegans", "procedure": "The UA196 worms were bleached, and the eggs were incubated on PLATE 1. On day two, the UA196 worms were transferred (using M9 buffer) on PLATE 2 (without ligand). On day five, 10 UA196 worms were used to determine the number of healthy DA worms using confocal imaging (as described earlier) prior to the treatment with ligands on day five. In tandem, ~50 worms were transferred to PLATE 3 (with ligand) using M9 buffer (10-20 µL) and the plate was incubated at 20 °C in the incubator. On days 10 and 15, 10 UA196 worms from PLATE 2 (without ligand) and PLATE 3 (with ligand) were used to determine the number of healthy DA worms using confocal imaging (as described earlier). For each condition, six biological replicates were performed and at least 10 technical replicates were used for each biological replicate. […] (n = 6 independent experiments and each n consisted of a minimum of ten technical replicates)."}, "[1]": {"test_system": "UA196 worms (human αS and GFP in DA neurons)", "experiment": "Confocal counting of healthy DA neurons in UA196 worms, early treatment (day two and four)", "assay_type": "in vivo, C. elegans", "set-up": "key to Total neurons, Average: healthy DA neurons per replicate of 10 worms, max 60", "from_the_text": "The aggregation of αS is associated with the neurodegeneration of DA neurons, which is a pathological hallmark of PD. Next, we investigated the neuroprotective effect of NS163 on the intraneuronal αS aggregation-mediated degeneration of DA neurons in a well-established C. elegans PD model (UA196)[20],[72]–[75]. The UA196 worms express both human αS and GFP in DA neurons under the control of the dopamine promoter genotype (Pdat-1::GFP; Pdat-1::α-SYN). The expression and aggregation of αS in six DA neurons that are located within the anterior region of worms lead to progressive neurodegeneration characteristics during the aging of UA196 worms. This strain has been used to gain insights into the PD-associated mechanisms and to assess the neuroprotective effect of ligands against the intraneuronal αS aggregation[20],[72]–[75]. During the aging of worms, αS protein aggregates and degenerates the DA neurons as represented by the gradual loss of cell bodies as observed from day 3 (Fig. 7b, c, filled red arrow) to day 5 (Fig. 7d, e, empty red arrow), to day 15 (Fig. 7f, g, empty red arrow). Additionally, there was fragmentation and blebbing of neurites from day 3 (Fig. 7b, c, filled yellow arrow) to day 5 (Fig. 7d, e, empty yellow arrow), which has been observed by others as well[72]–[75]. The maximum number of healthy DA neurons in one UA196 worm is six on day 3 (no degeneration) and we used 10 worms/biological replicate, which makes a total of 60 healthy DA neurons/biological replicate. Therefore, for each study, the maximum number of healthy DA neurons in UA196 worms is 60 as an average for each biological replicate. […] None of the UA196 worms had all six healthy DA neurons on day 5 (Fig. 7k, -NS163) and there was a gradual decline in the total number of healthy DA neurons in UA196 worms (Supplementary Fig. 26a). […] The average number of intact DA neurons in UA196 worms treated with NS163 was 59.5, 58.7, and 57.3 on day five, 10, and 15, respectively (Fig. 7j, red line). Additionally, the total number of treated worms with all six intact DA neurons were 57, 52, and 47 on day 5, 10, and 15, respectively (Fig. 7k, Supplementary Fig. 26b).\nIn UA196 strain, human αS and GFP are expressed in DA neurons under control of a dopamine transporter-specific promoter [Pdat-1::α-syn+Pdat-1::GFP], which results in age-dependent neurodegeneration of six DA neurons.\nThis experiment was performed based on previously described protocols with slight modifications[24],[65],[88]. Briefly, the worm strains (NL5901 or UA196) were bleached at the same time and the eggs were incubated on PLATE 1. On day two, the worms were divided into two batches. One half of the worms were transferred (using M9 buffer) on PLATE 2 (without ligand) and the second half of the worms were transferred to PLATE 3 (with ligand). The concentration of the ligands varied from 10–50 µM as described in the main manuscript. The worms were incubated on PLATE 2 or PLATE 3 up to day 3 at 20 °C in an incubator with constant humidity. On day four, the ligand (10–50 µM, stock conc. = 10 mM in DMSO, DMSO from 0.1–0.5%, v/v) was added again to PLATE 3. For confocal imaging, at least 10 worms per condition (from PLATE 2 or PLATE 3) were transferred to a cover slide containing an anesthetic (40 mM sodium azide), and mounted on glass microscope slide containing 2% agarose pads using a reported protocol. The images of the worms were collected using an Olympus Fluoview FV3000 confocal/2-photon microscope (40 x Plan-Apo/1.3 NA objective with DIC capability) and processed using the OlympusViewer in ImageJ software. For NL5901 worms, the inclusions of the aggregated αS (GFP puncta in the muscle cells) were manually counted (10 worms per condition) for the five-day imaging period (day 5 to day 9) for PLATE 2 or PLATE 3. […]"}, "[2]": {"conditions": "UA196 worms+NS132, Day 10, per trial (10 worms)"}, "[3]": {"conditions": "UA196 worms+NS132, Day 15, per trial (10 worms)"}, "[4]": {"conditions": "UA196+NS132, Day 3, 10 per trial"}, "[5]": {"conditions": "UA196+NS132, Day 5, 10 per trial"}, "[6]": {"conditions": "UA196+NS132, Day 10, 10 per trial"}, "[7]": {"conditions": "UA196+NS132, Day 15, 10 per trial"}},
  "note": "Values joined by “and” are separate entries in the source; they are usually repeats but may differ in a detail not shown here. Equal values may be shown once.",
  "data": [
    {"smiles": "Cc1ccc(NC(=O)c2ccc(NC(=O)c3ccc([N+](=O)[O-])c(NCCc4c[nH]c5ccccc45)n3)c(NCC3CCCCC3)n2)c(OCC(=O)O)n1", "note": "[NS132]", "values": [
      {"measurement": "number of intact healthy DA neurons (max. 60)", "setting": "UA196 worms; 50 μM ligand on day five, day 15 (untreated 13.8 / 12.8)", "result": 32},
      {"measurement": "healthy DA neurons, Average", "setting": "UA196 worms; UA196+ 50 uM NS132, day 5 (same value as UA196 control)", "result": 44.8333},
      {"measurement": "healthy DA neurons, Average", "setting": "UA196 worms; UA196+ 50 uM NS132, day 10", "result": 34.8333},
      {"measurement": "healthy DA neurons, Average", "setting": "UA196 worms; UA196+ 50 uM NS132, day 15", "result": 32},
      {"measurement": "healthy DA neurons per trial", "setting": "UA196 worms; UA196 worms+Ligands, single trials 1-6, day not given", "result": "31 and 33"},
      {"measurement": "Number of worms with 5 neurons", "setting": "UA196 worms; [2]", "result": "1 and 2"},
      {"measurement": "Number of worms with 6 neurons", "setting": "UA196 worms; [2]", "result": 0},
      {"measurement": "number of worms with 3 neurons", "setting": "UA196 worms; [2]", "result": "4 and 3"},
      {"measurement": "number of worms with 4 neurons", "setting": "UA196 worms; [2]", "result": "3 and 4"},
      {"measurement": "Number of worms with 2 neurons", "setting": "UA196 worms; [3]", "result": "1 and 2"},
      {"measurement": "Number of worms with 5 neurons", "setting": "UA196 worms; [3]", "result": 0},
      {"measurement": "Number of worms with 6 neurons", "setting": "UA196 worms; [3]", "result": 0},
      {"measurement": "number of worms with 3 neurons", "setting": "UA196 worms; [3]", "result": "4 and 3 and 2"},
      {"measurement": "number of worms with 4 neurons", "setting": "UA196 worms; [3]", "result": "4 and 5 and 6"},
      {"measurement": "number of intact DA neurons in UA196 worms (max. 60)", "setting": "[1]; 50 µM ligand on day two and four, day 15 (untreated 13.5)", "result": 51},
      {"measurement": "Total neurons, Average", "setting": "[1]; UA196+NS132, Day 3", "result": 59.5},
      {"measurement": "Number of worms with 1 neurons", "setting": "[1]; [4]", "result": 0},
      {"measurement": "Number of worms with 2 neurons", "setting": "[1]; [4]", "result": 0},
      {"measurement": "Number of worms with 6 neurons", "setting": "[1]; [4]", "result": "9 and 10"},
      {"measurement": "number of worms with 3 neurons", "setting": "[1]; [4]", "result": 0},
      {"measurement": "number of worms with 4 neurons", "setting": "[1]; [4]", "result": 0},
      {"measurement": "Total neurons, Average", "setting": "[1]; UA196+NS132, Day 5", "result": 55.8333},
      {"measurement": "Number of worms with 1 neurons", "setting": "[1]; [5]", "result": 0},
      {"measurement": "Number of worms with 2 neurons", "setting": "[1]; [5]", "result": 0},
      {"measurement": "Number of worms with 5 neurons", "setting": "[1]; [5]", "result": "2 and 3 and 4"},
      {"measurement": "Number of worms with 6 neurons", "setting": "[1]; [5]", "result": "7 and 8 and 6 and 5"},
      {"measurement": "number of worms with 3 neurons", "setting": "[1]; [5]", "result": 0},
      {"measurement": "Total neurons, Average", "setting": "[1]; UA196+NS132, Day 10", "result": 53.1667},
      {"measurement": "Number of worms with 1 neurons", "setting": "[1]; [6]", "result": 0},
      {"measurement": "Number of worms with 2 neurons", "setting": "[1]; [6]", "result": 0},
      {"measurement": "Number of worms with 6 neurons", "setting": "[1]; [6]", "result": "6 and 4 and 5"},
      {"measurement": "number of worms with 3 neurons", "setting": "[1]; [6]", "result": 0},
      {"measurement": "Total neurons, Average", "setting": "[1]; UA196+NS132, Day 15", "result": 51},
      {"measurement": "Number of worms with 1 neurons", "setting": "[1]; [7]", "result": 0},
      {"measurement": "Number of worms with 2 neurons", "setting": "[1]; [7]", "result": 0},
      {"measurement": "Number of worms with 5 neurons", "setting": "[1]; [7]", "result": "5 and 4 and 3"},
      {"measurement": "Number of worms with 6 neurons", "setting": "[1]; [7]", "result": "3 and 4 and 5"},
      {"measurement": "Total neurons, UA196 worms+Ligands", "setting": "[1]; UA196 worms+Ligands, one value per trial, day not given for ligand (controls: Day 3, Day 15)", "result": "53 and 48 and 50 and 54 and 49 and 52"}
    ]}
  ]
}
